Measurements as given in patent US20060093596A1, “Genomic approach to identification of novel broad-spectrum antimicrobial peptides from bony fish” (priority 2002, published 2006).
Where no end group is shown, it is not given here.

Experiments:
[1] = system: Salmonella enterica s. Typhimurium MS4252S (C610, supersusceptible strain); assay type: cell-based; details: lowest peptide concentration inhibiting growth by at least 50%; Mueller-Hinton broth
Protocol: (§3) Most non-fish bacterial strains as well as Candida albicans were grown at 37° C. in Mueller-Hinton Broth (MHB; Difco Laboratories, Detroit), while the fish bacteria were maintained at 16° C. in Tryptic Soy Broth (TSB; Difco, 5g/l NaCl). All strains were stored at −70° C. until they were thawed for use and sub-cultured daily. The following strains, Pseudomonas aeruginosa K799 (parent of Z61), Pseudomonas aeruginosa Z61 (antibiotic supersusceptible), Salmonella typhimurium 14028s (parent of MS7953s), Salmonella typhimurium MS7953s (defensin supersusceptible), as well as Staphylococcus epidermidis (human clinical isolates) and methicillin-resistant Staphylococcus aureus (MRSA; isolated by Dr. A. Chow, University of British Columbia) have been kindly donated by Prof R. E. W. Hancock, University of British Columbia.
(§4) The activities of the antimicrobial peptides were determined as minimal inhibitory concentrations (MICs) using the microtitre broth dilution method of Amsterdam (Amsterdam, 1996), as modified by Wu and Hancock (1999). Serial dilutions of the peptide were made in water in 96-well polypropylene (Costar, Coming Incorporated, Coming, New York) microtiter plates. Bacteria or C. albicans were grown overnight to mid-logarithmic phase as described above, and diluted to give a final inoculum size of 10^6 cfu/ml. A suspension of bacteria or yeast was added to each well of a 96 well plate and incubated overnight at the appropriate temperature. […] Three repeats of each MIC determination were performed.

[2] = system: Salmonella enterica s. Typhimurium 14028S (C587); assay type: cell-based; details: lowest peptide concentration inhibiting growth by at least 50%; Mueller-Hinton broth
Protocol: as §3, §4

[3] = system: Pseudomonas aeruginosa K799 (H187); assay type: cell-based; details: lowest peptide concentration inhibiting growth by at least 50%; Mueller-Hinton broth
Protocol: as §3, §4

[4] = system: Pseudomonas aeruginosa Z61 (H188, supersusceptible strain); assay type: cell-based; details: lowest peptide concentration inhibiting growth by at least 50%; Mueller-Hinton broth
Protocol: as §3, §4

[5] = system: Escherichia coli C786, CGSC4908; assay type: cell-based; details: lowest peptide concentration inhibiting growth by at least 50%; supplemented Mueller-Hinton broth
Protocol: All strains were stored at −70° C. until they were thawed for use and sub-cultured daily.
Escherichia coli strain CGSC 4908 (his-67, thyA43, pyr-37), auxotrophic for thymidine, uridine, and L-histidine (Cohen et al., 1963) was kindly supplied, free of charge, by the E.coli Genetic Stock Centre (Yale University, New Haven, Conn.). MHB supplemented with 5 mg/L thymidine, 10 mg/L uridine and 20 mg/L L-histidine (Sigma Chemical Co., St. Louis, Mo.), was used to grow E.coli CGSC 4908 unless otherwise specified.
The activities of the antimicrobial peptides were determined as minimal inhibitory concentrations (MICs) using the microtitre broth dilution method of Amsterdam (Amsterdam, 1996), as modified by Wu and Hancock (1999). Serial dilutions of the peptide were made in water in 96-well polypropylene (Costar, Coming Incorporated, Coming, New York) microtiter plates. Bacteria or C. albicans were grown overnight to mid-logarithmic phase as described above, and diluted to give a final inoculum size of 10^6 cfu/ml. A suspension of bacteria or yeast was added to each well of a 96 well plate and incubated overnight at the appropriate temperature. In the case of E. coli CGSC 4908, supplemented MHB was used. […] Three repeats of each MIC determination were performed.

[6] = system: Escherichia coli UB1005 (C498); assay type: cell-based; details: lowest peptide concentration inhibiting growth by at least 50%; Mueller-Hinton broth
Protocol: as §3, §4

[7] = system: Escherichia coli DC2 (C500, outer membrane-permeable mutant); assay type: cell-based; details: lowest peptide concentration inhibiting growth by at least 50%; Mueller-Hinton broth
Protocol: as §3, §4

[8] = system: bacterial pathogens and C. albicans; experiment: Spectrum of antimicrobial activity (MIC panel, overall); assay type: cell-based; details: summary of MIC results against bacteria and C. albicans
Protocol: Three repeats of each MIC determination were performed.
The minimal inhibitory concentrations of the chemically produced peptides against a wide range of baterial pathogens and C. albicans were determined and are shown in Table 9.

[9] = system: Aeromonas salmonicida 99-1, A449
Protocol: (§5) Most non-fish bacterial strains as well as Candida albicans were grown at 37° C. in Mueller-Hinton Broth (MHB; Difco Laboratories, Detroit), while the fish bacteria were maintained at 16° C. in Tryptic Soy Broth (TSB; Difco, 5g/l NaCl).
(§6) Two field isolates of the salmonid pathogen Aeromonas salmonicida are from the IMB strain collection.
as §4

[10] = system: Aeromonas salmonicida 97-4
Protocol: as §5, §6, §4

[11] = system: Staphylococcus epidermidis C621 (clinical isolate)
Protocol: as §3, §4

[12] = system: methicillin-resistant Staphylococcus aureus (MRSA) C623, SAP017; details: for Minimal inhibitory concentration, MRSA C623: methicillin-resistant C623, SAP017
Protocol: as §3, §4

[13] = system: Candida albicans C627, CALB105; details: C627, CALB105
Protocol: as §3, §4

[14] = system: methicillin-resistant Staphylococcus aureus (MRSA); experiment: Killing assay (survival at MIC and ten times MIC); assay type: cell-based; details: Mueller-Hinton broth, FIG. 13
Protocol: (§1) Survival of bacteria and C. albicans upon exposure to selected peptides applied at their minimal inhibitory concentrations (MICs) and ten times their MICs was measured using standard methodology. The test organisms were grown in MHB and exposed to the peptides. At the specified time intervals equal aliquots were removed from the cultures, plated on MHB plates, and the resulting colonies were counted. Percentage survival was plotted against time on a logarithmic scale. Two repeats of each experiment were performed.
(§2) FIG. 13 describes Survival of a Gram-positive bacterium (methicillin-resistant Staphylococcus aureus—MRSA) upon exposure to NRC-15 at its minimal inhibitory concentration (MIC) and ten times its MIC. S. aureus was grown in Mueller-Hinton broth and exposed to NRC-15 at its MIC and ten times its MIC. At the specified intervals equal aliquots were removed from the culture, plated on MHB plates, and the resulting colonies were counted.

Candida albicans = experiment: Killing assay (survival at MIC and ten times MIC); assay type: cell-based; details: Mueller-Hinton broth, FIG. 15
Protocol: as §1
as §2, with “15” for “13”, “yeast (Candida albicans)” for “Gram-positive bacterium (methicillin-resistant Staphylococcus aureus—MRSA)”, “NRC-12” for “NRC-15”, “C. albicans” for “S. aureus”

Substance | Minimal inhibitory concentration, S. typh MS4252s [1] | Minimal inhibitory concentration, S. typh 14028s [2] | Minimal inhibitory concentration, P. aeru K799 [3] | Minimal inhibitory concentration, P. aeru Z61 [4] | Minimal inhibitory concentration, E. coli C786 [5] | Minimal inhibitory concentration, E. coli UB1005 [6] | Minimal inhibitory concentration, E. coli DC2 [7] | antimicrobial activity, overall (in words) [8] | Minimal inhibitory concentration, A. sal 99-1 [9] | Minimal inhibitory concentration, A. sal 97-4 [10] | Minimal inhibitory concentration, S. epi C621 [11] | Minimal inhibitory concentration, MRSA C623 [12] | Minimal inhibitory concentration, C. alb C627 [13] | ability to kill methicillin-resistant S. aureus [14] | concentration inhibiting the growth of methicillin-resistant S. aureus [12] | ability to kill C. albicans (Candida albicans)
WLRRIGKGVKIIGGAALDHL-NH2 [NRC-2] | 64 mg/L | >64 mg/L | 64 mg/L | 32 mg/L | 64 mg/L | 64 mg/L | 64 mg/L | only marginally active | >128 mg/L | 128 mg/L | >64 mg/L | >64 mg/L | >64 mg/L |  |  | 
GFWGKLFKLGLHGIGLLHLHL-NH2 [NRC-15] | 4 mg/L | 16 mg/L | 8 mg/L | 4 mg/L | 8 mg/L | 8 mg/L | 8 mg/L | broad spectrum of antimicrobial activity | 8 mg/L | 16 mg/L | 4 mg/L | 4 mg/L | 16 mg/L | ability to kill | 4 µg/mL | 
GWKSVFRKAKKVGKTVGGLALDHYL-NH2 [NRC-11] | 4 mg/L | 32 mg/L | 32 mg/L | 4 mg/L | 4 mg/L | 16 mg/L | 4 mg/L | broad spectrum of antimicrobial activity | 8 mg/L | 8 mg/L | 64 mg/L | >64 mg/L | 32 mg/L |  |  | 
GWKKWFNRAKKVGKTVGGLAVDHYL-NH2 [NRC-12] | 2 mg/L | 8 mg/L | 4 mg/L | 1 mg/L | 2 mg/L | 8 mg/L | 2 mg/L | broad spectrum of antimicrobial activity | 2 mg/L | 2 mg/L | 8 mg/L | 16 mg/L | 4 mg/L |  |  | ability to kill
FFRLLFHGVHHGGGYLNAA-NH2 [NRC-9] | 64 mg/L | >64 mg/L | >64 mg/L | 64 mg/L | 64 mg/L | >64 mg/L | >64 mg/L | poor or no observed activities | >64 mg/L | >64 mg/L | >64 mg/L | >64 mg/L | >64 mg/L |  |  | 
